US20240240224A1, “FLUORESCENT D-TYPE AMINO ACID METABOLISM MARKER-BASED METHOD FOR DETECTING ANTIBACTERIAL DRUG SENSITIVITY TEST” (priority 2020, published 2024)
In brackets after ≈: the same amount, converted by molar mass.

Assays:
A. baumannii Ab19 [1] = test: FaAST (FDAA metabolic labeling); format: cell-based, Acinetobacter baumannii; settings: unit assumed
Method: (§1) The specific experimental steps are as follows: • 1. Take the colony to be tested that has been cultured overnight on the plate and fully mix it in normal saline to make a uniform bacterial solution. Dilute it into CAMHB medium to make a bacterial solution with OD600=0.05. • 2. Add 45 μl antibiotic solutions to be tested of different concentrations to 96-well plates (see Table 3 for antibiotic concentration gradient settings). • 3. Add 50 μl of bacterial solution prepared in Step 1 to the 96-well plate and mix well. • 4.5 μl of 10 mM Cy5-DAA probe was added to each well (final concentration was 0.15 mM, and its structure was shown in FIG. 1). After mixing, the probe was incubated for 2 hours in the dark. • 5. After dilution with 200 μl PBS solution, the fluorescence intensity of each sample was detected by flow cytometry. The flow detection results are shown in the attached FIG. 4-5, showing the curve of antibiotic concentration gradient and fluorescence intensity, and the MIC (minimum inhibitory concentration) is obtained by referring to this curve.
(§2) Antibiotic resistant strains are shown in bold in the table below.

K. pneumoniae Kp6 [2] = test: BMD susceptibility test; format: cell-based, Klebsiella pneumoniae; settings: unit assumed
[3] = system: bacteria contained in alveolar lavage fluid; test: FDAA metabolic labeling susceptibility test of alveolar lavage fluid (Cy5-DAA probe); format: cell-based; settings: alveolar lavage fluid of patients with hospital acquired pneumonia, 2 hours
Method: (§3) With reference to the flow chart of the rapid detection method of antimicrobial susceptibility test based on FDAA metabolic markers shown in FIG. 3, FDAA is used for the detection of antimicrobial susceptibility test of alveolar lavage fluid. The specific experimental steps are as follows: • 1. Mix bronchoalveolar lavage fluid (BALF, 10 ml) of patients with hospital acquired pneumonia with cation regulated broth medium (CAMHB, 10 ml) of twice the concentration to prepare the bacterial fluid to be tested. • 2. Add 45 μl antibiotic solutions of different concentrations to the 96-well plate separately (see Table 1 for antibiotic concentration gradient settings). • 3. Add 50 μl of the bacterial solution prepared in step 1 to the 96-well plate and mix well. • 4. Add 5 μl of 10 mM Cy5-DAA probe (final concentration 0.15 mM, see FIG. 1 for its structure) into each well, mix well, and then cultivate in dark for 2 hours. • 5. Add 200 μl PBS solution for dilution, and then use flow cytometry to detect the fluorescence intensity of each sample.

E.coli 1146 [4] = test: Vitek 2 drug sensitivity test; format: cell-based, Escherichia coli; on Sensibility: key: S: Drug sensitive; R: Drug resistance
A. baumannii Ab16 [5] = test: BMD susceptibility test; format: cell-based, Acinetobacter baumannii; settings: unit assumed
Ec ATCC 25922 [6] = test: BMD susceptibility test; format: cell-based, Escherichia coli; settings: unit assumed
Pa ATCC 27853 [7] = test: BMD susceptibility test; format: cell-based, Pseudomonas aeruginosa; settings: unit assumed
E. coli Ec13 [8] = test: FaAST (FDAA metabolic labeling); format: cell-based, Escherichia coli; settings: unit assumed
Method: as §1, with “cytometry.” for “cytometry. The flow detection results are shown in the attached FIG. 4-5, showing the curve of antibiotic concentration gradient and fluorescence intensity, and the MIC (minimum inhibitory concentration) is obtained by referring to this curve.”

E.coli 1113 [9] = test: Vitek 2 drug sensitivity test; format: cell-based, Escherichia coli; further: key: S: Drug sensitive; R: Drug resistance
Escherichia coli ECO15 [10] = test: VITEK drug sensitivity test; format: cell-based; settings: unit assumed
A. baumannii Ab16 [11] = test: FaAST (FDAA metabolic labeling); format: cell-based, Acinetobacter baumannii; settings: unit assumed
Method: as §1, with “cytometry.” for “cytometry. The flow detection results are shown in the attached FIG. 4-5, showing the curve of antibiotic concentration gradient and fluorescence intensity, and the MIC (minimum inhibitory concentration) is obtained by referring to this curve.”

E. coli Ec11 [12] = test: BMD susceptibility test; format: cell-based, Escherichia coli; settings: unit assumed
P. aeruginosa Pa2 [13] = test: BMD susceptibility test; format: cell-based, Pseudomonas aeruginosa; settings: unit assumed
Escherichia coli ECO922 [14] = test: VITEK drug sensitivity test; format: cell-based; settings: unit assumed
Pa ATCC 27853 [15] = test: FaAST (FDAA metabolic labeling); format: cell-based, Pseudomonas aeruginosa; settings: unit assumed
Method: as §1, §2

P. aeruginosa Pa2 [16] = test: FaAST (FDAA metabolic labeling); format: cell-based, Pseudomonas aeruginosa; settings: unit assumed
Method: as §1, §2

P. aeruginosa Pa3 [17] = test: FaAST (FDAA metabolic labeling); format: cell-based, Pseudomonas aeruginosa; settings: unit assumed
Method: as §1, §2

E.coli 1113 [18] = test: FDAA metabolic labeling susceptibility test (Cy5-DAA probe, flow cytometry); format: cell-based, Escherichia coli; settings: Escherichia coli; E.coli 1113; Cy5-DAA probe, 2 hours; read-out: MIC, FDAA
Method: as §1

E.coli 1146 [19] = test: as above; format: cell-based, Escherichia coli; settings: Escherichia coli; E.coli 1146; Cy5-DAA probe, 2 hours; read-out: MIC, FDAA
Method: as §1

Ec ATCC 25922 [20] = test: FaAST (FDAA metabolic labeling); format: cell-based, Escherichia coli; settings: unit assumed
Method: as §1, §2

E. coli Ec11 [21] = test: FaAST (FDAA metabolic labeling); format: cell-based, Escherichia coli; settings: unit assumed
Method: as §1, §2

Escherichia coli ECO15 [22] = test: FaAST with DAA-Cy5-2 probe; format: cell-based; settings: unit assumed
Method: as §3
The specific steps are the same as in Example 5. […] The minimum inhibitory concentration of antibiotics was obtained according to the fluorescence signal intensity of flow detection, and the statistical results are shown in Table 7.

K. pneumoniae Kp9 = test: BMD susceptibility test; format: cell-based, Klebsiella pneumoniae; settings: unit assumed
[23] = system: bacteria contained in alveolar lavage fluid; test: Vitek 2 drug sensitivity test of alveolar lavage fluid; format: cell-based; on Sensibility: key: S: Drug sensitive; R: Drug resistance
E. coli Ec13 [24] = test: BMD susceptibility test; format: cell-based, Escherichia coli; settings: unit assumed
K. pneumoniae Kp6 [25] = test: FaAST (FDAA metabolic labeling); format: cell-based, Klebsiella pneumoniae; settings: unit assumed
Method: as §1, with “cytometry.” for “cytometry. The flow detection results are shown in the attached FIG. 4-5, showing the curve of antibiotic concentration gradient and fluorescence intensity, and the MIC (minimum inhibitory concentration) is obtained by referring to this curve.”

A. baumannii Ab19 [26] = test: BMD susceptibility test; format: cell-based, Acinetobacter baumannii; settings: unit assumed
Escherichia coli ECO922 [27] = test: FaAST with DAA-Tetra probe; format: cell-based; settings: unit assumed
Method: The specific experimental steps are as follows: • 1. The tested colonies cultured overnight on the plate were picked and mixed thoroughly in 2× Cation-Adjusted Mueller Hinton Broth medium (2×CAMHB) to make bacterial suspension with turbidity of OD600=0.1. • 2. […] Add 50 μL of the bacterial solution prepared in step 1 (the final concentration of the bacterial solution is OD600=0.05) to the 96-well plate, and add 5 μL of 3 mM DAA-Tetra probe (the final concentration is 0.15 mM), mix well, and incubate in the dark at 37° C. 120 rpm for 2 hours. • 4. After culture, dilute the mixed bacterial solution 10 times with PBS solution, and detect the fluorescence intensity of each sample with flow cytometry. The flow detection result is shown in FIG. 14-19, and the arrow is for the MIC value. The minimum inhibitory concentration of antibiotics was obtained according to the fluorescence signal intensity of flow detection, and the statistical results are shown in Table 6.

P. aeruginosa Pa3 [28] = test: BMD susceptibility test; format: cell-based, Pseudomonas aeruginosa; settings: unit assumed

## C[C@@H](O)[C@H]1C(=O)N2C(C(=O)O)=C(SCCN=CN)C[C@H]12 [Imipenem, imipenem]
A. baumannii Ab19 [1]
  FaAST (MIC): 1 mg/L
K. pneumoniae Kp6 [2]
  BMD (MIC): ≤ 0.25 mg/L
[3]
  MIC, FDAA: ≥256 mg/L
E.coli 1146 [4]
  Sensibility: S
E.coli 1146 [4]; Escherichia coli
  MIC: ≤ 1 mg/L
A. baumannii Ab16 [5]
  BMD (MIC): 32 mg/L
Ec ATCC 25922 [6]
  BMD (MIC): ≤ 0.25 mg/L
Pa ATCC 27853 [7]
  BMD (MIC): 2 mg/L
E. coli Ec13 [8]
  FaAST (MIC): 128 mg/L
E.coli 1113 [9]
  Sensibility: R
Escherichia coli ECO15 [10]
  MIC, VITEK: 128 mg/L (≈ 428 µM)
A. baumannii Ab16 [11]
  FaAST (MIC): 64 mg/L
E. coli Ec11 [12]
  BMD (MIC): ≤ 0.25 mg/L
P. aeruginosa Pa2 [13]
  BMD (MIC): 1 mg/L
Escherichia coli ECO922 [14]
  MIC, VITEK: 1 mg/L (≈ 3.34 µM)
Pa ATCC 27853 [15]
  FaAST (MIC): 1 mg/L
P. aeruginosa Pa2 [16]
  FaAST (MIC): 1 mg/L
P. aeruginosa Pa3 [17]
  FaAST (MIC): 32 mg/L
E.coli 1113 [18]
  MIC: ≥ 128 mg/L
E.coli 1146 [19]
  MIC: 0.5 mg/L (≈ 1.67 µM)
Ec ATCC 25922 [20]
  FaAST (MIC): 1 mg/L
E. coli Ec11 [21]
  FaAST (MIC): 1 mg/L
Escherichia coli ECO15 [22]
  MIC, FaAST: 128 mg/L (≈ 428 µM)
K. pneumoniae Kp9
  BMD (MIC): 128 mg/L
[23]
  MIC: ≥ 16 mg/L
  Sensibility: R
E. coli Ec13 [24]
  BMD (MIC): 16 mg/L
K. pneumoniae Kp6 [25]
  FaAST (MIC): 1 mg/L
A. baumannii Ab19 [26]
  BMD (MIC): ≤ 0.25 mg/L
Escherichia coli ECO922 [27]
  MIC, FaAST: 1 mg/L (≈ 3.34 µM)
P. aeruginosa Pa3 [28]
  BMD (MIC): 32 mg/L
